The NIST ThermoML archive (doi:10.1016/j.jct.2003.12.012)

Test: molar heat capacity at saturation pressure
Settings: Crystal, Vacuum adiabatic calorimetry

c1ccc2c3c(sc2c1)CCCC3 [1,2,3,4-tetrahydrodibenzothiophene]
Settings | molar heat capacity [J/K/mol]
4.929 K | 0.32
5 K | 0.33
5.867 K | 0.56
6.798 K | 0.931
7.734 K | 1.41
8.759 K | 2.08
9.819 K | 2.94
10 K | 3.08
10.94 K | 3.96
12.2 K | 5.23
13.6 K | 6.8
15.14 K | 8.647
16.83 K | 10.74
18.67 K | 13.06
20 K | 14.74
20.68 K | 15.6
22.91 K | 18.38
25.4 K | 21.41
28.17 K | 24.67
30 K | 26.76
31.26 K | 28.16
34.71 K | 31.86
38.53 K | 35.74
40 K | 37.17
42.79 K | 39.83
47.54 K | 44.15
50 K | 46.29
52.85 K | 48.69
58.73 K | 53.4
59.8 K | 54.26
60 K | 54.39
65.16 K | 58.28
65.33 K | 58.42
70 K | 61.88
71.56 K | 63.02
78.46 K | 67.87
80 K | 68.94
85.75 K | 72.84
90 K | 75.67
90.98 K | 76.33
93.89 K | 78.25
99.3 K | 81.84
100 K | 82.3
108.29 K | 87.72
117.93 K | 93.99
120 K | 95.28
127.8 K | 100.49
138.76 K | 107.84
140 K | 108.6
150.73 K | 116.11
160 K | 122.46
162.76 K | 124.52
174.79 K | 133.17
180 K | 136.76
186.82 K | 141.95
198.84 K | 151.12
199.7 K | 151.8
200 K | 151.75
210.84 K | 160.54
212.28 K | 161.67
220 K | 167.35
222.84 K | 170.12
225.76 K | 172.63
232.14 K | 177.99
234.83 K | 180.25
238.71 K | 183.61
240 K | 183.48
247.47 K | 192.11
249.42 K | 193.97
251.32 K | 196.13
260 K | 200.99
262.17 K | 216.81
